Measured values taken from patent US11021435B2, “Serotonin receptor-targeting compounds and methods” (priority 2014, dated 2021).
Entries after “also recorded” stand apart in the source; their conditions may differ.

Columns and labels:
[1] = molecular target: T1, human 5-HT7 receptors (5-HT7a) (Homo sapiens, UniProt P34969); assay: Radioligand competition binding ([3H]5-CT), HEK293 cells stably expressing human 5-HT7 receptors; conditions: Affinity Ki 5-HT7, our unreported observations
T1 construct: expressed in transfected cells
Source text: FIGS. 4A-4C show the effects of 5-FPT are stereospecific. […] Data are expressed as the mean±SEM.

[2] = molecular target: T2, 5-HT2A (Homo sapiens, UniProt P28223); assay: Radioreceptor competitive binding, [3H]ketanserin (4-PAT series); conditions: 2.0 nM [3H]ketanserin; HCl salts; read-out: Affinity (Ki ± SEM) 5-HT2A
Description: (§1) Radioreceptor competitive binding assays were carried out to assess the binding affinities of the compounds of the invention. Radioligand competitive displacement binding assays were performed in 96-well plates, using 3-5 μg of protein from membrane samples per well. Each concentration point in the binding experiments was performed in triplicates of samples, and each experiment was performed a minimum of three times. […] Non-specific binding was determined in the presence of or 10 μM mianserin for all three 5-HT2 receptors or 10 μM triprolidine for H1 receptors. Radioreceptor binding assay mixtures were incubated for 1.0 hour at 37° C., with termination by rapid filtration through Whatman GF/B filters using a 96-well cell harvester (Tomtec, Hamden, Conn.), which were subsequently washed five times with 50 mM Tris-HCl at room temperature. Filters containing bound [^3H]radioligand were dried, placed in vials containing 2 mL scintillation cocktail (ScintiVerse), allowed to equilibrate overnight, and then were counted for ^3H-induced scintillation using a Beckman-Coulter LS6500 counter.
(§2) Competition binding data were analyzed using nonlinear regression curve-fitting algorithms in GraphPad Prism, 6 for Windows (San Diego, Calif.). […] Ligand affinity was expressed as an approximation of Ki values by conversion of the IC50 value using the Cheng-Prusoff equation […] where L was the concentration of radioligand.

[3] = molecular target: H1 (Homo sapiens, UniProt P35367); assay: Radioreceptor competitive binding, [3H]mepyramine (4-PAT series); conditions: for Ki: 1.0 nM [3H]mepyramine, read-out: Affinity (Ki ± SEM) H1
Description: as §1, §2

[4] = molecular target: T3, 5-HT2B (Homo sapiens, UniProt P41595); assay: Radioreceptor competitive binding, [3H]mesulergine (4-PAT series); conditions: 1.95 nM [3H]mesulergine; read-out: Affinity (Ki ± SEM) 5-HT2B
Description: as §1, §2

[5] = molecular target: T4, 5-HT2C (Homo sapiens, UniProt P28335); assay: as above; conditions: read-out: Affinity (Ki ± SEM) 5-HT2C
T4 sequence (P28335 33-458): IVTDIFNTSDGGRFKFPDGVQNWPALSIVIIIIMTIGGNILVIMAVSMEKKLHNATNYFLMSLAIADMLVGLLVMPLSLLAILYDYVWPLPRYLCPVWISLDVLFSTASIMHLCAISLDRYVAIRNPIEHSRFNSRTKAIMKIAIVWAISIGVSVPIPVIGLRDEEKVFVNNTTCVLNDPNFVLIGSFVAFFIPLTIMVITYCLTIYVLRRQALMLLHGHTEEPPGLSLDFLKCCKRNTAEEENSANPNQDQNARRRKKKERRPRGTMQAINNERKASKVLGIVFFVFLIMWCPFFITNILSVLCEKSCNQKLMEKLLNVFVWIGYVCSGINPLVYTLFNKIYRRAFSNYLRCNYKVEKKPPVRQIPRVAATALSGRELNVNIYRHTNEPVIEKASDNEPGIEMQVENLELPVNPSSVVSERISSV
Description: as §1, §2

[6] = molecular target: T4, 5-HT2C; assay: Receptor-mediated inositol phosphate hydrolysis, transfected HEK293 cells; format: cell-based; design: expressed in transfected cells; host or cells: HEK293, transient
Description: (§3) In brief, transiently transfected HEK293 cells were labeled with 1 μCi/ml [3H]myoinositol and seeded into 48-well plates. Cells were treated with test compounds for 30 minutes. The reaction was stopped by addition of 50 mM formic acid. Anion-exchange columns (Bio-Rad Laboratories, Hercules, Calif.) were used to bind and collect [3H]inositol phosphates. 3H-induced scintillations then were measured. Each experiment included a minimum of triplicate measurements for each concentration of test compound, and each experiment was performed a minimum of three times.

[7] = molecular target: T5, histamine H1 receptor (Homo sapiens, UniProt P35367); assay: as above; format: cell-based
T5 construct: expressed in transfected cells; host or cells: HEK293, transient
Description: as §3, with “Functional responses of analog 7l and 5-HT (positive control agonist, data not shown) by measuring 5-HT2 and H1 receptor-mediated inositol phosphate hydrolysis were assessed. In” for “In”

[8] = molecular target: T2, 5-HT2A; assay: as above; format: cell-based; design: expressed in transfected cells; host or cells: HEK293, transient; conditions: concentrations up to 10 μM
Description: as §3, with “Functional responses of analog 7l and 5-HT (positive control agonist, data not shown) by measuring 5-HT2 and H1 receptor-mediated inositol phosphate hydrolysis were assessed. In” for “In”

[9] = molecular target: T3, 5-HT2B; assay: as above; format: cell-based; design: expressed in transfected cells; host or cells: HEK293, transient
Description: as §3, with “Functional responses of analog 7l and 5-HT (positive control agonist, data not shown) by measuring 5-HT2 and H1 receptor-mediated inositol phosphate hydrolysis were assessed. In” for “In”

[10] = test system: C57BI/6J mice; assay: DOI-elicited head-twitch response (HTR) in C57BI/6J mice
Source text: The 5-HT2A receptor is a predominant 5-HT receptor in the cortex, and serves important excitation modulation functions on glutamate pyramidal and GABA neurons.

[11] = molecular target: T2, 5-HT2A; design: expressed in transfected cells; host or cells: HEK293, transient; conditions: cited from earlier work
[12] = molecular target: T3, 5-HT2B; design: expressed in transfected cells; host or cells: HEK293, transient; conditions: cited from earlier work

T3 sequence (P41595 whole entry): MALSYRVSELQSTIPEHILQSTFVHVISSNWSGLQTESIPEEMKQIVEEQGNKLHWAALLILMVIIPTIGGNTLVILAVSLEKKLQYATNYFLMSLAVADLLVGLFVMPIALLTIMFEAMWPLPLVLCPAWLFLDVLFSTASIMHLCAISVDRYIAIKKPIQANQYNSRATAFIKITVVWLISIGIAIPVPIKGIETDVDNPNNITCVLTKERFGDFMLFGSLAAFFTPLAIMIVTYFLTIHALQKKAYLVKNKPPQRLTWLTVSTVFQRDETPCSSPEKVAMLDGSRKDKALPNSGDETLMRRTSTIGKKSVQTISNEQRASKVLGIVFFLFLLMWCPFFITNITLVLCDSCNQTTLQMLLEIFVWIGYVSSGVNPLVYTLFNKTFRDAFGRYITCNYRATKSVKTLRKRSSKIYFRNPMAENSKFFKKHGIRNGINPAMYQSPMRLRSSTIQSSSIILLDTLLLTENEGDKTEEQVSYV
T2 sequence (P28223 whole entry): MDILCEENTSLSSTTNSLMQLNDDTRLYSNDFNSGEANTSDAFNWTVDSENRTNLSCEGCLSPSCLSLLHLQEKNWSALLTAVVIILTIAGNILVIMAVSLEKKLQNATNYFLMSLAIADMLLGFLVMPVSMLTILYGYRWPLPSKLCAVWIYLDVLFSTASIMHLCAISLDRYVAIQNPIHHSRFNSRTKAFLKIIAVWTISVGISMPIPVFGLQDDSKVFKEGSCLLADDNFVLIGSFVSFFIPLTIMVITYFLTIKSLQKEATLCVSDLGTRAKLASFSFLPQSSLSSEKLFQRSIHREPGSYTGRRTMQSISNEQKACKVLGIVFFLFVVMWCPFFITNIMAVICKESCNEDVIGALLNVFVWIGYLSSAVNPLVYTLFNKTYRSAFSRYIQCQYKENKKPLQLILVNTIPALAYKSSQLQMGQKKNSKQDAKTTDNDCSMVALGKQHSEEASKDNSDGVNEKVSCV
H1, sequence (P35367 whole entry): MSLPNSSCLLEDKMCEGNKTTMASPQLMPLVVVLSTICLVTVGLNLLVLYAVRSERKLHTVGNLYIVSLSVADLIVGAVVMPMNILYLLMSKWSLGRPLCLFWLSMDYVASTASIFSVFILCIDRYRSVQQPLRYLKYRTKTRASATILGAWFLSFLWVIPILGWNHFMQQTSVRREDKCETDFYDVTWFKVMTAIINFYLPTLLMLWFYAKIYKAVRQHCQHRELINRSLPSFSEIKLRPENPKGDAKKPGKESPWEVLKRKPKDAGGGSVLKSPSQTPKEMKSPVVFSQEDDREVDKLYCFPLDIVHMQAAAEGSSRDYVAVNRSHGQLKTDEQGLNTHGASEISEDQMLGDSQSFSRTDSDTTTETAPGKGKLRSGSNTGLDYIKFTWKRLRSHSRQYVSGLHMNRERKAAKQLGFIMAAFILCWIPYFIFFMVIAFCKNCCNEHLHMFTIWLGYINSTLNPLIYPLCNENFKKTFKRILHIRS
T5 sequence (P35367 whole entry): as above
T1 sequence (P34969 1-445 isoform P34969-2): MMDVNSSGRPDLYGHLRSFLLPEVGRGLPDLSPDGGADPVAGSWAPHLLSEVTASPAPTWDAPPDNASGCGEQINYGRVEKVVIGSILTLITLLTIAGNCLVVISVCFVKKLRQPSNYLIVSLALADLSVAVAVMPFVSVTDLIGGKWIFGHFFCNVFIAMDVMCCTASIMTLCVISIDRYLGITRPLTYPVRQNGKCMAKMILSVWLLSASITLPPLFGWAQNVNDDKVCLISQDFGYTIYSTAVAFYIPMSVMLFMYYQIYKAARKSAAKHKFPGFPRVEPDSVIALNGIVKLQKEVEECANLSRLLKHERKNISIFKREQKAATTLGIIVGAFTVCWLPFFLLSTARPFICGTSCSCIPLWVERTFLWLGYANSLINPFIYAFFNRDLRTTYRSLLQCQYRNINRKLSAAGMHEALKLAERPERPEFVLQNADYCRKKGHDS

SMILES: COc1cc(CC(C)N)c(OC)cc1I (racemic) [DOI, (±)-2,5-dimethoxy-4-iodoamphetamine, reference compound]
- Ki [1]: > 1000 nM

SMILES: COc1cc2c(cc1Cl)C[C@@H](N(C)C)C[C@@H]2c1ccccc1 (single isomer, unassigned)
- Ki [2]: 160 ± 24 nM
- Ki [3]: 1.2 ± 0.6 nM
- Ki [4]: 17.3 ± 5.33 nM
- Ki [5]: 24 ± 2.5 nM

SMILES: COc1cc2c(cc1Cl)C[C@@H](N(C)C)C[C@H]2c1ccccc1 (single isomer, unassigned) [Compound 7c, Cis-4-Phenyl-6-methoxy-7-chloro-N,N-dimethyl-1,2,3,4-tetrahydronaphthalen-2-amine]
- Ki [2]: 2300 nM
- Lower H1 receptor affinity than (+)-cis-PAT 1c analog [3]: about 10 fold
- Ki [3]: > 1000 nM
- Ki [4]: 2500 nM
- Ki [5]: 1600 nM

SMILES: COc1cc2c(cc1Cl)C[C@@H](N(C)C)C[C@H]2c1ccccc1 (single isomer, unassigned) [Compound 7d, Cis-4-Phenyl-6-methoxy-7-chloro-N,N-dimethyl-1,2,3,4-tetrahydronaphthalen-2-amine]
- Ki [2]: 320 ± 42 nM
- Ki [3]: 10.8 ± 0.6 nM
- Ki [4]: 43 ± 5 nM
- Ki [5]: 96 ± 18 nM

SMILES: COc1cc2c(cc1Cl)CC(N(C)C)CC2c1cccc(Cl)c1 (single isomer, unassigned) [Compound 7f]
- Ki [2]: 50 ± 20 nM
- Ki [3]: 18.9 ± 0.7 nM
- Ki [4]: 56 nM
- Ki [5]: 9 ± 2 nM

SMILES: COc1cc2c(cc1Cl)C[C@@H](N(C)C)C[C@@H]2c1cccc(Br)c1 (single isomer, unassigned) [Compound 7i, Trans-4-(3′-Bromophenyl)-6-methoxy-7-chloro-N,N-dimethyl-1,2,3,4-tetrahydronaphthalen-2-amine]
- Ki [2]: 79 ± 14 nM
- Ki [3]: 650 ± 21 nM
- Ki [4]: 169 ± 27 nM
- Ki [5]: 350 ± 130 nM

SMILES: COc1cc2c(cc1Cl)C[C@@H](N(C)C)C[C@@H]2c1cccc(Br)c1 (single isomer, unassigned) [Compound 7j, Trans-4-(3′-Bromophenyl)-6-methoxy-7-chloro-N,N-dimethyl-1,2,3,4-tetrahydronaphthalen-2-amine]
- Ki [2]: 61 ± 15 nM
- Ki [3]: 230 ± 33 nM
- Ki [4]: 50 nM
- Ki [5]: 130 ± 43 nM

SMILES: COc1ccc2c(c1)[C@@H](c1cccc(Cl)c1)C[C@H](N(C)C)C2 (single isomer, unassigned) [Compound 7k, Trans-4-(3′-Chlorophenyl)-6-methoxy-N,N-dimethyl-1,2,3,4-tetrahydronaphthalen-2-amine]
- Ki [2]: 350 ± 16 nM
- Ki [3]: 740 ± 80 nM
- Ki [4]: 310 ± 41 nM
- Ki [5]: 280 ± 30 nM

SMILES: COc1ccc2c(c1)[C@@H](c1cccc(Cl)c1)C[C@H](N(C)C)C2 (single isomer, unassigned) [Compound 7l, Trans-4-(3′-Chlorophenyl)-6-methoxy-N,N-dimethyl-1,2,3,4-tetrahydronaphthalen-2-amine]
- Emax ([6]; HEK293, read-out: Efficacy 5-HT2C, EMAX): 73 ± 6%
- EC50 ([6]; read-out: Function 5-HT2C, EC50 (agonist potency)): 19 ± 1 nM
- Ki [2]: 35 ± 3 nM
- Reduced affinity at H1 receptors compared to unsubstituted PAT (7b) [3]: > 40 fold
- Ki [3]: 86 ± 18 nM
- Ki [4]: 65 nM
- Ki [5]: 17 ± 1 nM
- Efficacy H1, Imax ([7]; inverse agonist): −25 ± 1.5%
- IC50 ([7]; mean ± S.E.M.): 48 nM
- Function 5-HT2A (activation) [8]: did not activate
- Function 5-HT2A (activation) ([8]; listed as 71): No
- Efficacy 5-HT2B, Imax ([9]; inverse agonist): Imax = −17 ± 4.6%
- IC50 ([9]; mean ± S.E.M.): 51 nM

SMILES: CN(C)[C@@H]1Cc2cc(Cl)c(O)cc2[C@@H](c2ccccc2)C1 (single isomer, unassigned) [Compound 7m, Trans-4-Phenyl-6-hydroxy-7-chloro-N,N-dimethyl-1,2,3,4-tetrahydronaphthalen-2-amine]
- Ki [2]: 70 ± 2.6 nM
- Ki [3]: 109 ± 17 nM
- Ki [4]: 1200 nM
- Ki [5]: 1000 nM

SMILES: CN(C)[C@@H]1Cc2cc(Cl)c(O)cc2[C@@H](c2ccccc2)C1 (single isomer, unassigned) [Compound 7n, Trans-4-Phenyl-6-hydroxy-7-chloro-N,N-dimethyl-1,2,3,4-tetrahydronaphthalen-2-amine]
- Ki [2]: 60 ± 5.4 nM
- Ki [3]: 3 ± 1 nM
- Ki [4]: 91 nM
- Ki [5]: 23 ± 3 nM

SMILES: Cc1nn(C)c(C)c1-c1cccc2c1CC[C@H](N(C)C)C2 [AS-19, reference compound]
- DOI-elicited HTR ([10]; C57BI/6J mice, DOI 1 mg/kg, 5-FPT up to 5.6 mg/kg, AS-19 10 mg/kg, DPAT 0.5 mg/kg): suppressed the DOI HTR; also recorded: attenuated the HTR
- Locomotor behavior and serotonin syndrome seen in the DOI HTR assay ([10]; data not shown): neither (−)-DPAT, a 5-HT1A partial agonist, nor AS-19 affected locomotor behavior or caused obvious serotonin syndrome

SMILES: C[C@H](N)Cn1ccc2cc(F)c(Cl)cc21 [Ro60-0175]
- Activation of 5-HT2A receptors by reported selective 5-HT2C agonists [11]: also activate
- Activation of 5-HT2B receptors by reported selective 5-HT2C agonists [12]: also activate

SMILES: C[C@H]1CNCCc2ccc(Cl)cc21 [lorcaserin]
- Activation of 5-HT2A receptors by reported selective 5-HT2C agonists [11]: also activate
- Activation of 5-HT2B receptors by reported selective 5-HT2C agonists [12]: also activate
